Measured values reported in PMC5598150 (Toxicology Reports, 2015).

What was measured:
[1] = test system: human neuroblastoma SK-N-SH cells; assay: MTT assay of cell viability in SK-N-SH neuroblastoma cells; assay type: cell-based
rat = settings: ref Hazardous Substances Data Bank (HSDB); cited from earlier work
[2] = partition coefficient between octanol and water; cited from earlier work
[3] = test system: primary rat cortical neurons; assay: Live and Dead cell staining of primary neuronal cultures; assay type: cell-based; settings: 24 h
primary cultured cells = settings: cited from earlier work

| Compound | IC50 ([1]; Homo sapiens, SK-N-SH, 24 h) | LD50 rat (intraperitoneal) (rat) | log Pow [2] | Survival of primary cultured neurons ([3]; 0.5 mM) | Survival of primary cultured neurons ([3]; 1 mM) | Concentration causing the death of all primary cultured cells (primary cultured cells) | IC50 ([1]; SK-N-SH cells, MTT assay, 24 h exposure) |
| --- | --- | --- | --- | --- | --- | --- | --- |
| CCCCC(CC)CO (centres unmarked) [2-Ethyl-1-hexanol] | 15.1 µM | 500 mg/kg | 2.73 | almost all of the primary cultured neurons died | – | – | – |
| C=CC(C)(O)CCC=C(C)C (centres unmarked) [Linalool] | 1330 µM | 307 mg/kg | – | – | almost all of the cells in culture dishes died | – | – |
| CCCCCCCCC=O [Nonanal] | 8.31 µM | – | 3.27 | almost all of the primary cultured neurons died | – | – | – |
| OCCc1ccccc1 [Phenethyl alcohol] | 2390 µM | – | – | – | almost all of the cells in culture dishes survived | – | – |
| Cc1ccccc1 [Toluene, reference compound] | 850 µM | 1332 mg/kg | – | – | – | 2000 µM | – |
| CC/C=C\CCO [cis-3-Hexen-1-ol] | 2300 µM | – | – | – | almost all of the cells in culture dishes died | – | – |
| CCCCCCCC=O [n-Octanal] | 37.2 µM | – | 2.78 | almost all of the primary cultured neurons died | – | – | – |
| CCCO [n-Propyl alcohol] | – | 164 mg/kg | – | – | almost all of the cells in culture dishes survived | – | > 5000 µM |
